Measured values taken from PMC4477702 (The Biochemical journal, 2015).

Key:
[1] = biological target: T1, N. punctiforme (Np) COG3236 (Nostoc punctiforme, UniProt B2J4E5); assay: HPLC-UV product formation; format: biochemical; conditions: pH 8.0, 22°C, 1 h
T1 sequence (B2J4E5 1-156): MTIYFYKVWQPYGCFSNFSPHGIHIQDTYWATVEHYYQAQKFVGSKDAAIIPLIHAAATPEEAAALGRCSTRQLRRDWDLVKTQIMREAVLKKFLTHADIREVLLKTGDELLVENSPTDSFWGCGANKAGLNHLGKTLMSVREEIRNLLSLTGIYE

[2] = biological target: T2, Arabidopsis (At) COG3236 domain of RIBR (Arabidopsis thaliana, UniProt Q9STY4); assay: HPLC-UV product formation; format: biochemical; conditions: pH 8.0, 22°C, 1 h
T2 sequence (Q9STY4 405-599 limits assumed): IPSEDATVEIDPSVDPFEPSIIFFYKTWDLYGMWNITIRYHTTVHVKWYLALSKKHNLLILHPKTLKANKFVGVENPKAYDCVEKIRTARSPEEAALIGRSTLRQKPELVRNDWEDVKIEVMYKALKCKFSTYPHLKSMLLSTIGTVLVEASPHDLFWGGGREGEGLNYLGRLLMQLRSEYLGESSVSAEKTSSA

Compound | HPLC-UV product formation ([1]; 3 mM substrate, 30 μg protein) | HPLC-UV product formation; diacetyl derivatization ([2]; 3 mM substrate, 30 μg protein) | HPLC-UV product formation ([1]; 2.4 mM substrate, 1 μg protein) | HPLC-UV product formation; diacetyl derivatization ([2]; 2.4 mM substrate, 0.1 μg protein)
Nc1nc(N[C@@H]2O[C@H](COP(=O)(O)O)[C@@H](O)[C@H]2O)c(N)c(=O)[nH]1 (mixture of isomers) [compound 1, 2,5-diamino-6-ribosylamino-4(3H)-pyrimidinone 5′-phosphate] | All five COG3236 proteins gave rise to a new HPLC peak when mixed with intermediate | All five COG3236 proteins gave rise to a new HPLC peak when mixed with intermediate | – | –
Nc1c(N[C@@H]2O[C@H](COP(=O)(O)O)[C@@H](O)[C@H]2O)[nH]c(=O)[nH]c1=O (mixture of isomers) [compound 2, 5-amino-6-ribosylamino-2,4(1H,3H)-pyrimidinedione 5′-phosphate] | – | – | All five COG3236 proteins gave rise to a new HPLC peak when mixed with intermediate | All five COG3236 proteins gave rise to a new HPLC peak when mixed with intermediate
